Experimental data reported in patent publication US20260138961A1, “MODULATORS OF MITOCHONDRIAL DNA REPLICATION” (Pretzel Therapeutics, Inc., priority 2022, published 2026).

Biological target: T1, POLγA:G848S (Homo sapiens, UniProt P54098, G848S)
T1 sequence (P54098 1-1239 G848S): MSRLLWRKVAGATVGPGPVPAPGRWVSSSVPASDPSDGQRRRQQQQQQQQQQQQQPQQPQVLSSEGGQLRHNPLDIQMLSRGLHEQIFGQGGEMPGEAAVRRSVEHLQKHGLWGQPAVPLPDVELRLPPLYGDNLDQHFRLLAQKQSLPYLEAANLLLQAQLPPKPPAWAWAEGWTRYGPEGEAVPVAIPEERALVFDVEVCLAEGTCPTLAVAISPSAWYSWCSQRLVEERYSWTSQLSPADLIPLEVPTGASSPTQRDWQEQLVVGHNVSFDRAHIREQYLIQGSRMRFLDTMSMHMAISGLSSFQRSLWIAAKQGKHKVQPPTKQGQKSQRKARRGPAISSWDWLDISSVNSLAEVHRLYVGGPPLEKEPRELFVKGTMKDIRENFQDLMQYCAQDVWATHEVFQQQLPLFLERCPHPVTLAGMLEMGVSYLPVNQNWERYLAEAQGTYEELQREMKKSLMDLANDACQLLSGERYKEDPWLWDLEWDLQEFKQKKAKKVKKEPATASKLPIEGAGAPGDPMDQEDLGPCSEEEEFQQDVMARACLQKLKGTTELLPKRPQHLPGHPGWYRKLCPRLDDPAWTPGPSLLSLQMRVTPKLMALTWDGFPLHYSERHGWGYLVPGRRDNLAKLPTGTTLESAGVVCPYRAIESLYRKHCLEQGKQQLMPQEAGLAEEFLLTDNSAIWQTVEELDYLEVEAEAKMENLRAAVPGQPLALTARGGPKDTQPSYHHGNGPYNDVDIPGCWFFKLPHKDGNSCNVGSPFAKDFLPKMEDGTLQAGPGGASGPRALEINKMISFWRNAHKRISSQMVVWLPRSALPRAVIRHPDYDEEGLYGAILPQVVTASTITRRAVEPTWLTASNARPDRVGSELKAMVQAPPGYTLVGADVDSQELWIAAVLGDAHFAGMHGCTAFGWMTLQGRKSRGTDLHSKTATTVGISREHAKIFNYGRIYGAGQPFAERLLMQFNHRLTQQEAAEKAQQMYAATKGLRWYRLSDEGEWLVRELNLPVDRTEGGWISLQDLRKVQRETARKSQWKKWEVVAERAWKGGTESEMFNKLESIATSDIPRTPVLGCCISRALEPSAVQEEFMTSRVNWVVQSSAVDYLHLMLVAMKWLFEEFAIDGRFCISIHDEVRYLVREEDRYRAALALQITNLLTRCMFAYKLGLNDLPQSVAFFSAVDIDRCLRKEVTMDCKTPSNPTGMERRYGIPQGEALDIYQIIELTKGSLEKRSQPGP
T1 sequence (Q9UHN1 1-485 partner): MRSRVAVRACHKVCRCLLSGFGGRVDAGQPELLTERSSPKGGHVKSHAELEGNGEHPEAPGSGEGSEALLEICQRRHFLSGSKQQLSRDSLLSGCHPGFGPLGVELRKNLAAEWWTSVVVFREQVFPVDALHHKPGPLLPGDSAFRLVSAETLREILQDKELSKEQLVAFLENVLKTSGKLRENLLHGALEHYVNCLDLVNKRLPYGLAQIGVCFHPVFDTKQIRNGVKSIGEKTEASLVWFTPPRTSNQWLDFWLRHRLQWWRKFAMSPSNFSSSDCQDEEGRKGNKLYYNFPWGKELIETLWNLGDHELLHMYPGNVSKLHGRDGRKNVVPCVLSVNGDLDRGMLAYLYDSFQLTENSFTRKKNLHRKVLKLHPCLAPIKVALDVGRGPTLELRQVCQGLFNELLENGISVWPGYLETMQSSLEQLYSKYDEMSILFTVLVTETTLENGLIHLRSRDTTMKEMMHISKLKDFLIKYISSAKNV
Assay: DNA polymerization assay, POLγA:G848S mutant
Format: biochemical
Conditions: G848S AC50, stimulation of polymerase activity, primed M13mp18 ssDNA, 37° C. 2 hours

| SMILES | AC50 [µM] |
| --- | --- |
| Cc1cc(S(=O)(=O)Nc2noc(-c3ccccc3)n2)c(C)cc1Cl [Example 142, 4-chloro-2,5-dimethyl-N-(5-phenyl-1,2,4-oxadiazol-3-yl)benzenesulfonamide] | > 100 |

Same assay, conditions: stimulation of polymerase activity, primed M13mp18 ssDNA, 37° C. 2 hours; read-out: G848S AC50

| SMILES | AC50 [µM] |
| --- | --- |
| O=S(=O)(Nc1csc(-c2ccccc2)n1)c1ccc(F)cc1Cl [Example 126, 2-chloro-4-fluoro-N-(2-phenylthiazol-4-yl)benzenesulfonamide] | > 100 |
| O=S(=O)(Nc1csc(-c2ccccc2)n1)c1ccc(C(F)(F)F)cc1 [Example 127, N-(2-phenylthiazol-4-yl)-4-(trifluoromethyl)benzenesulfonamide] | > 100 |
| O=S(=O)(Nc1csc(-c2ccccc2)n1)c1cccc2nccnc12 [Example 128, N-(2-phenylthiazol-4-yl)quinoxaline-5-sulfonamide] | > 100 |
| Cc1cc(S(=O)(=O)N[C@H]2CCCN(C(=O)c3ccccc3)C2)c(C)cc1Cl [Example 129, (S)-N-(1-benzoylpiperidin-3-yl)-4-chloro-2,5-dimethylbenzenesulfonamide] | > 100 |
| Cc1cc(S(=O)(=O)N[C@H]2CCCN(C(=O)N3CCCC3)C2)c(C)cc1Cl [Example 130, (S)-4-chloro-2,5-dimethyl-N-(1-(pyrrolidinee-1-carbonyl)piperidin-3-yl)benzenesulfonamide] | > 100 |
| Cc1cc(S(=O)(=O)Nc2nsc(-c3ccccc3)n2)c(C)cc1Cl [Example 131, 4-chloro-2,5-dimethyl-N-(5-phenyl-1,2,4-thiadiazol-3-yl)benzenesulfonamide] | 3 |
| Cc1cc(S(=O)(=O)Nc2nc(-c3ccccc3)ns2)c(C)cc1Cl [Example 132, 4-chloro-2,5-dimethyl-N-(3-phenyl-1,2,4-thiadiazol-5-yl)benzenesulfonamide] | > 100 |
| Cc1cc(S(=O)(=O)Nc2cccc(C(=O)N3CCC[C@@H]3C)c2)c(C)cc1Cl [Example 133, (S)-4-chloro-2,5-dimethyl-N-(3-(2-methylpyrrolidine-1-carbonyl)phenyl)benzenesulfonamide] | 18 |
| Cc1ccc(C)c(S(=O)(=O)Nc2csc(-c3ccccc3)n2)c1 [Example 134, 2,5-dimethyl-N-(2-phenylthiazol-4-yl)benzenesulfonamide] | 1 |
| Cc1cc(Cl)ccc1S(=O)(=O)Nc1csc(-c2ccccc2)n1 [Example 135, 4-chloro-2-methyl-N-(2-phenylthiazol-4-yl)benzenesulfonamide] | 2 |
| Cc1cc(S(=O)(=O)Nc2csc(-c3ccccc3)n2)c(Cl)cc1F [Example 136, 2-chloro-4-fluoro-5-methyl-N-(2-phenylthiazol-4-yl)benzenesulfonamide] | 2 |
| O=S(=O)(Nc1csc(-c2ccccc2)n1)c1ccc2ncsc2c1 [Example 137, N-(2-phenylthiazol-4-yl)benzo[d]thiazole-6-sulfonamide] | 11 |
| O=S(=O)(Nc1csc(-c2ccccc2)n1)c1ccc(Cl)cc1Cl [Example 138, 2,4-dichloro-N-(2-phenylthiazol-4-yl)benzenesulfonamide] | > 100 |
| O=S(=O)(Nc1csc(-c2ccccc2)n1)c1ccccn1 [Example 139, N-(2-phenylthiazol-4-yl)pyridine-2-sulfonamide] | > 100 |
| O=S(=O)(Nc1csc(-c2ccccc2)n1)c1ccc(F)cc1F [Example 140, 2,4-difluoro-N-(2-phenylthiazol-4-yl)benzenesulfonamide] | > 100 |
| O=S(=O)(Nc1csc(-c2ccccc2)n1)c1ccc(C(F)(F)F)cc1F [Example 141, 2-fluoro-N-(2-phenylthiazol-4-yl)-4-(trifluoromethyl)benzenesulfonamide] | > 100 |
| Cc1cc(S(=O)(=O)Nc2nc(-c3ccccc3)no2)c(C)cc1Cl [Example 143, 4-chloro-2,5-dimethyl-N-(3-phenyl-1,2,4-oxadiazol-5-yl)benzenesulfonamide] | > 100 |
| Cc1cc(S(=O)(=O)Nc2cccc(C(=O)N3CCC[C@H]3CO)c2)c(C)cc1Cl [Example 145, (S)-4-chloro-N-(3-(2-(hydroxymethyl)pyrrolidine-1-carbonyl)phenyl)-2,5-dimethylbenzenesulfonamide] | 67 |
